One series deals with T1, BCL-XL (Homo sapiens, UniProt Q07817).
T1 construct: BCL-XL (amino acids 1-212, C-terminal fused to a hexahistidine (6×His) tag); purchased BPS Bioscience (San Diego, Calif., USA); host or cells: E. coli
Put plainly: Protein-protein interaction assay BCL-XL/Bad BH3 peptide (BCL-XL assay), TR-FRET. It counts as binding. The note with it: His-BCL-XL / Bad BH3-derived peptide. Here is the method:
Protein-Protein Interaction Assay: BCL-XL/Bad BH3 Peptide (BCL-XL Assay)
The dose-dependent inhibition by the compounds described in this invention of the interaction between […] and the BH3 domain of Bad (both human) was determined using a steady state binding competition assay with time-resolved fluorescence energy transfer (TR-FRET) readout. For that purpose BCL-2 (amino acids 1-211, C-terminal fused to a hexahistidine (6×His) tag (SEQ ID NO: 3) and a synthetic Bad BH3-derived peptide of sequence Biotin-PEG2-PEG2-NLWAAQRYGRELRR-NIe-SDEFVDSFKK-amide (SEQ ID NO: 2) served as protein receptor and tracer ligand respectively. The recombinant BCL-2 protein (expressed in E. coli) was purchased from BPS Bioscience (San Diego, Calif., USA). The Bad BH3-derived peptide can be obtained from e.g. Biosyntan (Berlin, Germany).
In the assay 11 different concentrations of each compound (0.1 nM, 0.33 nM, 1.1 nM, 3.8 nM, 13 nM, 44 nM, 0.15 μM, 0.51 μM, 1.7 μM, 5.9 μM and 20 μM) were typically measured as duplicates in the same microtiter plate. For that, 100-fold concentrated DMSO solutions were prepared by serial dilutions (1:3.4) of a 2 mM stock solution in a clear, 384-well microtiter plate (Greiner Bio-One, Frickenhausen, Germany). From there, 50 nl were transferred in a dark test plate (Greiner Bio-One. Frickenhausen, Germany). The assay was initiated by addition of 2 μl of a 2,5-fold concentrated Hs-BCL-XL solution (usually for a 1 nM end concentration in 5 μl reaction volume) in aqueous assay buffer [50 mM Tris/HCl pH 7, 100 mM sodium chloride (NaCl), 50 mM potassium fluoride (KF), 0.005% Tween-20, 2 mM DTT, 0.1% bovine gamma globulin (BGG)] to the compounds in the assay plate. This was followed by a 10-minute incubation step at 22° C. for pre-equilibration of the putative complex between His-BCL-XL and the compounds.
The mixture was incubated in the dark for one hour at 22° C. and then overnight at 4° C. The formation of BCL-XL/Bad complexes was determined by measuring the resonance energy transfer of the anti-His- Eu-cryptate antibody to the streptavidin-XL665 present in the reaction. For that purpose, the fluorescence emission at 620 nm and 665 nm after excitation at 330-350 nm was measured in a TR-FRET measuring instrument, for instance a Rubystar or a Pherastar (both from BMG Lab Technologies, Offenburg, Germany) or a Viewlux (Perkin-Elmer). The ratio of the emission at 665 nm and at 622 nm was used as indicator of the amount of BCL-XL/Bad complexes present.
The resulting data (ratio) were normalized, taking 0% inhibition as the mean value of control measurements (usually 32 data points) where all reagents were included. In this case 50 nl DMSO were used instead of compounds. A 100% inhibition corresponded to the mean value of control measurements (usually 32 data points) where all reagents except BCL-XL were included. IC50 values were determined by regression analysis based on a 4 parameter equation (minimum, maximum, IC50, Hill; Y=Max+(Min−Max)/(1+(X/IC50)^Hill) using the Screener Software (Genedata).

The subject of a further series is SUDHL5. Put plainly: Induction of cytotoxicity (CellTiter-Glo, 5 h), SUDHL5.
Setting [1] is: read-out: Cytotox SUDHL5 [M] (median), SUDHL5 cells, cytotoxicity induction, CellTiter-Glo, 5 h incubation, median.

Molecules are shown by their SMILES. Structures can show the parent of a compound that is named as a salt. Where two headings read alike, the source gives them in different places. A value given as a limit tells only on which side of the number the result lay.

IC50 data for 13 compounds are collected here from patent US10981932B2, “Macrocyclic indole derivatives” (Bayer Aktiengesellschaft, priority 2016, dated 2021).

T1 sequence (Q07817 1-212): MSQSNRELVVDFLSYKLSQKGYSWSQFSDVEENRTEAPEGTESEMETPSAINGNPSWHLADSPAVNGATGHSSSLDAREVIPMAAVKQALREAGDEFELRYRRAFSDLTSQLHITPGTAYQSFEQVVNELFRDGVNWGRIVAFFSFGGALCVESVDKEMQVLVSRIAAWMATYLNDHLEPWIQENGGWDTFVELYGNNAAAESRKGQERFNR

Regarding `Cc1nn(C)c2c1-c1cccc3c(CCCOc4cccc5cc(F)ccc45)c(C(=O)O)n(c13)CCCCOC2` (single isomer, unassigned; enantiomer 1) [Example 019, 7-{3-[(6-fluoronaphthalen-1-yl)oxy]propyl}-1,3-dimethyl-1,10,11,12,13,15-hexahydropyrazolo[4′,3′:9,10][1,6]oxazacycloundecino[8,7,6-hi]indole-8-carboxylic Acid-N-ethylethanamine Salt (Enantiomer 1)], the IC50 on BCL-XL was greater than 20 µM; in the series on SUDHL5 (setting [1]), 1.68e-06 M.
Take `Cc1nn(C)c2c1-c1cccc3c(CCCOc4cccc5cc(Cl)ccc45)c(C(=O)O)n(c13)CCCCOC2` (single isomer, unassigned; enantiomer 1) [Example 041, 7-{3-[(6-chloronaphthalen-1-yl)oxy]propyl}-1,3-dimethyl-1,10,11,12,13,15-hexahydropyrazolo[4′,3′:9,10][1,6]oxazacycloundecino[8,7,6-hi]indole-8-carboxylic acid-N-ethylethanamine Salt (Enantiomer 1)]: the IC50 is greater than 20 µM against BCL-XL and 1.02e-05 M in the series on SUDHL5 (setting [1]).
For the compound `Cc1nn(C)c2c1-c1cccc3c(CCCOc4cccc5cc(F)ccc45)c(C(=O)O)n(c13)CCCOC2` (single isomer, unassigned; enantiomer 1) [Example 047, 1-{3-[(6-fluoronaphthalen-1-yl)oxy]propyl}-9,11-dimethyl-5,6,8,9-tetrahydro-4H-pyrazolo[4′,3′:8,9][1,5]oxazecino[7,6,5-hi]indole-2-carboxylic acid-N-ethylethanamine Salt (Enantiomer 1)], the IC50 is greater than 20 µM against BCL-XL and 3.22e-06 M with SUDHL5 (setting [1]).
As to `COCCn1nc2c(c1CN1CCOCC1)-c1cccc3c(CCCOc4cccc5ccccc45)c(C(=O)O)n(c13)CCCN(C)C2` (single isomer, unassigned; enantiomer 1) [Example 057, 10-(2-methoxyethyl)-7-methyl-11-(morpholin-4-ylmethyl)-1-[3-(naphthalen-1-yloxy)propyl]-4,5,6,7,8,10-hexahydropyrazolo[3′,4′:7,8][1,5]diazecino[9,10,1-hi]indole-2-carboxylic Acid (Enantiomer 1)], the IC50 on BCL-XL is greater than 20 µM; in the series with SUDHL5 (Homo sapiens, SU-DHL-5, 5 h, read-out: Cytotox SUDHL5 [M] (median), SUDHL5 cells, cytotoxicity induction, CellTiter-Glo, 5 h incubation, median) it was 2.5e-05 M.
`Cc1c2c(nn1CCN1CCOCC1)CN(C)CCCn1c(C(=O)O)c(CCCOc3cccc4ccccc34)c3cccc-2c31` (single isomer, unassigned; enantiomer 1) [Example 060, 7,11-dimethyl-10-[2-(morpholin-4-yl)ethyl]-1-[3-(naphthalen-1-yloxy)propyl]-4,5,6,7,8,10-hexahydropyrazolo[3′,4′:7,8][1,5]diazecino[9,10,1-hi]indole-2-carboxylic Acid (Enantiomer 1)]: the IC50 against BCL-XL was greater than 20 µM; in the series with SUDHL5 (setting [1]), 4.3e-06 M.
For the compound `Cc1ccc2c(CCCOc3cccc4ccccc34)c(C(=O)O)n3c2c1-c1c(nn(C)c1C)CN(C)CCC3` (single isomer, unassigned; enantiomer 1) [Example 073, 7,10,11,12-tetramethyl-1-[3-(naphthalen-1-yloxy)propyl]-4,5,6,7,8,10-hexahydropyrazolo[3′,4′:7,8][1,5]diazecino[9,10,1-hi]indole-2-carboxylic Acid (Enantiomer 1)], the IC50 on BCL-XL is greater than 20 µM; in the series with SUDHL5 (setting [1]) it was 1.79e-06 M.
In the case of `CCn1nc2c(c1C1CC1)-c1cccc3c(CCCOc4cccc5ccccc45)c(C(=O)O)n(c13)CCCCOC2` (single isomer, unassigned; enantiomer 1) [Example 082, 3-cyclopropyl-2-ethyl-7-[3-(naphthalen-1-yloxy)propyl]-2,10,11,12,13,15-hexahydropyrazolo[4′,3′:9,10][1,6]oxazacycloundecino[8,7,6-hi]indole-8-carboxylic acid-N-ethylethanamine Salt (Enantiomer 1)], the IC50 at BCL-XL was greater than 20 µM; with SUDHL5 (setting [1]) it was 8.19e-06 M.
With `COCCn1nc2c(c1C1CC1)-c1cccc3c(CCCOc4cccc5ccccc45)c(C(=O)O)n(c13)CCCCOC2` (single isomer, unassigned; enantiomer 1) [Example 085, 3-Cyclopropyl-2-(2-methoxyethyl)-7-[3-(naphthalen-1-yloxy)propyl]-2,10,11,12,13,15-hexahydropyrazolo[4′,3′:9,10][1,6]oxazacycloundecino[8,7,6-hi]indole-8-carboxylic acid-N-ethylethanamine Salt (Enantiomer 1)], the values for the IC50 at BCL-XL and in the series with SUDHL5 (setting [1]) were greater than 20 µM and 3.91e-06 M, respectively.
For `Cc1c2c(nn1C1CC1)COCCCCn1c(C(=O)O)c(CCCOc3cccc4ccccc34)c3cccc-2c31` (single isomer, unassigned; enantiomer 1) [Example 093, 2-cyclopropyl-3-methyl-7-[3-(naphthalen-1-yloxy)propyl]-2,10,11,12,13,15-hexahydropyrazolo[4′,3′:9,10][1,6]oxazacycloundecino[8,7,6-hi]indole-8-carboxylic acid-N-ethylethanamine Salt (Enantiomer 1)], the IC50 at BCL-XL was greater than 20 µM; with SUDHL5 (setting [1]), 2.1e-06 M.
Regarding `COCCn1nc2c(c1C)-c1cccc3c(CCCOc4cccc5ccccc45)c(C(=O)O)n(c13)CCCCOC2` (single isomer, unassigned; enantiomer 1) [Example 107, 2-(2-methoxyethyl)-3-methyl-7-[3-(naphthalen-1-yloxy)propyl]-2,10,11,12,13,15-hexahydropyrazolo[4′,3′:9,10][1,6]oxazacycloundecino[8,7,6-hi]indole-8-carboxylic acid-N-ethylethanamine Salt (Enantiomer 1)], the IC50 on BCL-XL is greater than 20 µM; in the series on SUDHL5 (setting [1]), 1.73e-06 M.
Turning to `CCc1c2c(nn1C)CN(C)CCCn1c(C(=O)O)c(CCCOc3cccc4ccccc34)c3ccc(C)c-2c31` (single isomer, unassigned; enantiomer 1) [Example 145, 11-Ethyl-7,10,12-trimethyl-1-[3-(1-naphthyloxy)propyl]-4,5,6,7,8,10-hexahydropyrazolo[3′,4′:7,8][1,5]diazecino[9,10,1-hi]indole-2-carboxylic acid-N-ethylethanamine Salt (Enantiomer 1)], the results for the IC50 against BCL-XL and in the series with SUDHL5 (setting [1]) were greater than 20 µM and 1.4e-06 M, respectively.
As for `CCc1c2c(nn1C)COCCCCn1c(C(=O)O)c(CCCOc3cccc4ccccc34)c3cccc-2c31` (single isomer, unassigned; enantiomer 1) [Example 148, 3-Ethyl-2-methyl-7-[3-(1-naphthyloxy)propyl]-2,10,11,12,13,15-hexahydropyrazolo[4′,3′:9,10][1,6]oxazacycloundecino[8,7,6-hi]indole-8-carboxylic acid-N-ethylethanamine Salt (Enantiomer 1)], the IC50 was greater than 20 µM at BCL-XL and 9.08e-07 M in the series with SUDHL5 (setting [1]).
For `CCc1c2c(nn1C)COCCCCn1c(C(=O)O)c(CCCOc3cccc4ccccc34)c3ccc(C)c-2c31` (single isomer, unassigned; enantiomer 1) [Example 154, 3-Ethyl-2,4-dimethyl-7-[3-(1-naphthyloxy)propyl]-2,10,11,12,13,15-hexahydropyrazolo[4′,3′:9,10][1,6]oxazacycloundecino[8,7,6-hi]indole-8-carboxylic acid-N-ethylethanamine Salt (Enantiomer 1)] the same measures were greater than 20 µM and 1.08e-06 M.
